Reference: patent US10660836B2, “Hydroxy functionalized solvent based skin benefit composition” (Conopco, Inc., priority 2015, dated 2020)

Experiment: Transparency (no crystallization or gelation) of 12-hydroxystearic acid compositions after manufacturing, visual inspection
Format: physicochemical
Set-up: key: C: a substantially transparent or transparent composition for at least three (3) months after manufacturing; X: an opaque (non-transparent, non-translucent) composition inconsistent with the claimed compositions of this invention and where benefit agent crystallization or composition gelation is almost immediately observed
Details: SBA = 12-hydroxystearic acid
Excerpt: Cosmetic composition is meant to mean a leave-on or wash-off composition, preferably leave-on, for topical application to mammals, especially humans. Such a composition can include tonics, lotions, personal washes, serums, spot correctors, compositions for facial masks or wipes, make-up removers, patches, scrubs or the like. Substantially transparent as used herein, means allowing light to pass but diffusing the light so that items on the opposite side of light entry are not clearly visible. Substantially transparent is synonymous with translucent. Transparent, as used herein, means capable of transmitting light where objects opposite the point of entry of light are seen clearly upon a visable inspection (i.e., 2.5 cm of sample placed 5 cm over an object and viewed from 25 cm away from viewer's eyes). Flowable, as used herein, means having a viscosity from 0 to 8,000 cps, and preferably, from 10 to 4,000 cps, and most preferably, from 500 to 2,000 cps, including all ranges subsumed therein (viscosity measured on a Brookfield Viscometer, 24° C., 20 RPM, Spindle RV2). Free of crystallization and gelation as used herein means remaining at least substantially transparent (preferably transparent) at ambient temperature for at least three (3) months. Use of substantially transparent, transparent and translucent herein is based on the mixture of hydroxy functionalized solvent (with or without miscible co-solvent) and 12-hydroxystearic acid. It is not to say the mixture cannot, for example, comprise an optional opacifier. Hydroxy group density (“HD”) means the molecular weight of total solvent hydroxy group/the molecular weight of the solvent where solvent hydroxy group can include the hydroxy group on a carboxylic acid group. Methanol, for example, has an HD of 0.53, 17 g/mol/32 g/mol. Regarding optional additives, they may be used according to their solubility where those that are not water soluble may be selected for use in the composition substantially free of water as described herein and those which are water soluble may be used in the aforementioned optional but separate and distinct phase. Miscible/Soluble, as used herein, means ability to mix/dissolve homogeneously at 70 to 85° C. and remain homogeneously dissolved or mixed upon cooling. Comprising, as used herein, is meant to include consisting essentially of and consisting of. For the avoidance of doubt, therefore, the composition of this invention may consist essentially of or consist of 12-hydroxystearic acid and hydroxy functionalized solvent. Anhydrous as used herein means a composition substantially free of water whereby the composition is less than 2% by weight water, and preferably, less than 1% by weight water based on total weight of the composition comprising 12-hydroxystearic acid and hydroxy functionalized solvent. Anhydrous also includes free of water (i.e., no water) within the composition comprising 12-hydroxystearic and hydroxy fuctionalized solvent. Double phase product includes a two (2) portion product that may be separately packaged or preferably a biphasic product (i.e., distinct immiscible portions). Skin benefit agent means an agent in addition to hydroxyl functionalized solvent and 12-hydroxystearic acid that provides benefit to skin. The skin benefit agent used in the anhydrous composition of the invention that comprises 12-hydroxystearic acid is preferably soluble or miscible in the same. To the extent optional water miscible/soluble actives or ingredients are used, they will preferably be provided, as later described, in a double phase product with the anhydrous composition of this invention, the double phase product having a distinct phase often being a water phase (including emulsions, solutions and dispersions), water containing concentrate or water soluble solid, particulate or powder. Water phase, as used herein, includes a composition having 2% or more water, and preferably, from 10% to 98% by weight water based on total weight of the water phase. […]

Molecule	Transparency of composition (1% SBA/99% Solvent)	Transparency of composition (3% SBA/97% Solvent)	Transparency of composition (5% SBA/95% Solvent)	Transparency of composition (10% SBA/90% Solvent)	Transparency of composition (15% SBA/85% Solvent)	Transparency of composition (20% SBA/80% Solvent)	Transparency of composition (25% SBA/75% Solvent)
CC(C)CCCCCCCCCCCCCCCO [Isostearyl Alcohol]	C (a substantially transparent or transparent composition for at least three (3) months after manufacturing)	C (a substantially transparent or transparent composition for at least three (3) months after manufacturing)	X	X	X	X	X
OCCCCO [Butylene Glycol]	C (a substantially transparent or transparent composition for at least three (3) months after manufacturing)	X	X	X	X	X	X
CCOCCOCCO [2-(2-Ethoxyethoxy)ethanol]	C (a substantially transparent or transparent composition for at least three (3) months after manufacturing)	C (a substantially transparent or transparent composition for at least three (3) months after manufacturing)	C (a substantially transparent or transparent composition for at least three (3) months after manufacturing)	X	X	X	X
CCCCCCCCCCC(CO)CCCCCCCC (stereo not drawn) [Octyldodecanol]	C (a substantially transparent or transparent composition for at least three (3) months after manufacturing)	C (a substantially transparent or transparent composition for at least three (3) months after manufacturing)	X	X	X	X	X
Ethylhexyl Hydroxystearate	C (a substantially transparent or transparent composition for at least three (3) months after manufacturing)	X	X	X	X	X	X
CCO [Ethanol]	C (a substantially transparent or transparent composition for at least three (3) months after manufacturing)	C (a substantially transparent or transparent composition for at least three (3) months after manufacturing)	C (a substantially transparent or transparent composition for at least three (3) months after manufacturing)	C (a substantially transparent or transparent composition for at least three (3) months after manufacturing)	C (a substantially transparent or transparent composition for at least three (3) months after manufacturing)	X	X
OCCOc1ccccc1 [Pehnoxyethanol]	C (a substantially transparent or transparent composition for at least three (3) months after manufacturing)	C (a substantially transparent or transparent composition for at least three (3) months after manufacturing)	C (a substantially transparent or transparent composition for at least three (3) months after manufacturing)	X	X	X	X
OCc1ccccc1 [Benzyl Alcohol]	C (a substantially transparent or transparent composition for at least three (3) months after manufacturing)	C (a substantially transparent or transparent composition for at least three (3) months after manufacturing)	C (a substantially transparent or transparent composition for at least three (3) months after manufacturing)	X	X	X	X
CC(C)CCCCCCCCCCCCCCC(=O)O [Isostearic Acid]	C (a substantially transparent or transparent composition for at least three (3) months after manufacturing)	C (a substantially transparent or transparent composition for at least three (3) months after manufacturing)	X	X	X	X	X
CO [Methanol]	C (a substantially transparent or transparent composition for at least three (3) months after manufacturing)	C (a substantially transparent or transparent composition for at least three (3) months after manufacturing)	C (a substantially transparent or transparent composition for at least three (3) months after manufacturing)	C (a substantially transparent or transparent composition for at least three (3) months after manufacturing)	C (a substantially transparent or transparent composition for at least three (3) months after manufacturing)	C (a substantially transparent or transparent composition for at least three (3) months after manufacturing)	X
CC(O)CO (stereo not drawn) [Propylene Glycol]	C (a substantially transparent or transparent composition for at least three (3) months after manufacturing)	X	X	X	X	X	X
Conjugated Linoleic Acid	C (a substantially transparent or transparent composition for at least three (3) months after manufacturing)	C (a substantially transparent or transparent composition for at least three (3) months after manufacturing)	X	X	X	X	X
